{
  "source": "paper PMC7572827",
  "about": "(Clinical cancer research : an official journal of the …, 2020)",
  "key": {"mCRPC": {"tested_on": "mCRPC", "details": "SWITCH phase 2 crossover study; cited from earlier work"}, "[1]": {"experiment": "Plasma pharmacokinetics by LC/MS/MS", "details": "steady-state, by ZEN-3694 dose level"}},
  "data": [
    {"smiles": "C[C@]12CC[C@H](O)CC1=CC[C@@H]1[C@@H]2CC[C@]2(C)C(c3cccnc3)=CC[C@@H]12", "note": "[abiraterone]", "values": [
      {"measurement": "Median PFS, second line", "setting": "mCRPC", "value": 1.7, "unit": "months"}
    ]},
    {"smiles": "CNC(=O)c1ccc(N2C(=S)N(c3ccc(C#N)c(C(F)(F)F)c3)C(=O)C2(C)C)cc1F", "note": "[enzalutamide]", "values": [
      {"measurement": "Median PFS, second line", "setting": "mCRPC", "value": 3.5, "unit": "months"},
      {"measurement": "Impact of ZEN-3694 on concentration", "setting": "[1]", "value": "no significant impact"}
    ]}
  ]
}
